Columns and labels:
[1] = system: human prostate cancer cells (PC3); assay: Cytotoxicity by SRB assay, PC3 cells; format: cell-based; conditions: 72 h, 0.01 μM to 100 μM
Experimental: (§1) The human prostate cancer cells (PC3) and human osteosarcoma cells (MG-63) were obtained from Nawah Scientific Inc. (Mokatam, Cairo, Egypt) and cultured in DMEM (Dulbecco's modified eagle's medium), Gibco, USA, supplemented with fetal bovine serum (FBS) at a concentration of 10% and 100 U/mL of penicillin and streptomycin (PS). The Cells were incubated at 37° C. in a humidified environment that contained 5% CO2.
(§2) Cells were seeded in 96-well plates as aliquots of 100 μL cell suspension and incubated in a complete media for 24 h. Afterward, cells were treated with 2-(1-(2-hydroxypropyl)-4,5-diphenyl-1H-imidazol-2-yl)pyridine at diverse concentrations ranging from 0.01 μM to 100 μM for 72 h. Then, cells were fixed at 4° C. for one hour with 150 μL of 10% trichloroacetic acid (TCA). After washing the cells five times with distilled water, 70 μL of sulforhodamine (SRB) solution (0.4% w/v) was added and incubated for 10 min at room temperature in a dark place. […] Then, 150 μL of Tris pH 10.5 (10 mM) was added, and the absorbance was measured at 540 nm using a BMG LABTECH®-FLUOstar Omega microplate reader (Ortenberg, Germany). Half maximal inhibitory concentrations (IC50) values were calculated for each experiment using GraphPad Prism 6 software. […]
(§3) The inhibition was calculated using the following equation: Inhibition %=100−Average Viability

[2] = system: human osteosarcoma cells (MG-63); assay: Cytotoxicity by SRB assay, MG-63 cells; format: cell-based; conditions: 72 h, 0.01 μM to 100 μM
Experimental: as §1, §2, §3

melting point: 145 to 147 °C
SMILES: CN(C)CCCn1c(-c2cccnc2)nc(-c2ccccc2)c1-c1ccccc1 [3-(4,5-Diphenyl-2-(pyridin-3-yl)-1H-imidazol-1-yl)-N,N-dimethylpropan-1-amine]
antiproliferative activity [1]: excellent antiproliferative activities
antiproliferative activity [2]: excellent antiproliferative activities

Source: US11981655B1, “3-(4,5-diphenyl-2-(pyridin-3-yl)-1H-imidazol-1-yl)-N,N-dimethylpropan-1-amine as an anticancer compound” (KING FAISAL UNIVERSITY, priority 2023, dated 2024)
